Test results: ChEMBL document CHEMBL3507680, “University of Dundee, Gates Library screen for HepG2 cell viability”

Assay: Human HepG2 cell viability assay in 384 well format
Format: toxicity, cell-based
Parameters: dose 125 nL, time 70.5 hour; concentration not given beside the values
Conditions: HepG2 cells, read-out: Inhibition

| SMILES | cytotoxicity at 70.5 h |
| --- | --- |
| CCc1cc(CN(C)C(=O)CN2CC3(CCNCC3)OC2=O)on1 | -2.42% |
| COCC1c2nnn(CC3CC3)c2CCN1C(=O)c1cccn1C (configuration not stated) | 9.68% |
| Cc1ccoc1C(=O)NC(CC(C)C)C(=O)N1CCC(CO)CC1 (configuration not stated) | 27.4% |
| CCCc1cc(=O)n(CC(=O)NCCOC)c(-n2nc(C)cc2C)n1 | -0.382% |
| COc1ccccc1NC(=O)CC(C)NCc1scnc1C (configuration not stated) | -4.53% |
| O=C(CSC1CCc2ccccc2NC1=O)NCCc1ccc(O)cc1 (configuration not stated) | -2.27% |
| Cc1ccc(-c2cc(N)c(=O)n(CC(=O)NCC3CCCCC3)n2)s1 | -16.2% |
| COc1ccc(CN2CC[C@H](O)[C@@H]2Cc2cnn(C)c2)cc1 | -11.4% |
| Oc1ccccc1CN1CCC(n2cc(-c3ccc(F)cc3)nn2)CC1 | -4% |
| N#Cc1cccnc1OC1CCN(C(=O)c2cc(C3CC3)on2)CC1 | -6.54% |
| CCn1nc(CC(C)C)cc1C(=O)N1CCC(n2cnnc2)CC1 | 8.59% |
| Cc1ccc(-c2csc3c(=O)[nH]c(N4CCCC(C(N)=O)C4)nc23)cc1 (configuration not stated) | 1.04% |
| Cc1nn(C)c(C)c1NC(=O)CNc1cc(C(F)(F)F)ccc1F | 25% |
| O=C([C@@H]1C[C@H]2[C@H](CCN2Cc2nccs2)O1)N1CCOCC1 | -8.03% |
| Cc1nc(C(C)(C)NC(=O)Nc2ccccc2)no1 | 1.88% |
| CC(C)c1cc(C(=O)N(C)Cc2cccc3ncccc23)n(C)n1 | -3.18% |
| CC(C)COCc1cncc2c1CCN(Cc1cnn(C)c1)C2 | -13.8% |
| COCC(=O)N1Cc2nc3c(C)c(-c4cccs4)nn3c(O)c2C1 | -0.72% |
| Cc1cc(C)n(CC(C)NC(=O)NCc2c(C)cc(C)[nH]c2=O)n1 (configuration not stated) | 14.3% |
| CC(O)(CNc1ccc(Cl)c(C#N)n1)c1ccccc1 (configuration not stated) | 13.8% |
| O=C(NC1CCCN(CCc2ccccc2)C1)c1ccccn1 (configuration not stated) | -1.94% |
| CCn1nc(C)c2ncnc(N3CCCC(C)C3)c21 (configuration not stated) | 8.26% |
| COCCCN(C)Cc1nc2c(cnn2C)c(=O)[nH]1 | 42.4% |

| SMILES | cytotoxicity at 70.5 h |
| --- | --- |
| CN(Cc1cccc(C(=O)Nc2ccnn2C)c1)CC1(C)COC1 | 0.785% |
| CC(C)Nc1nc(C(=O)Nc2ccccn2)cs1 | -13.8% |
| CC(C)c1nccc(CN2CCC(O)(CN3CCCCC3)C2)n1 (configuration not stated) | -4.46% |
| Cc1cnc(C(=O)N2CCC3(CC2)CC(c2ccccc2)C(=O)N3)cn1 (configuration not stated) | 8.04% |
| COc1ccc(OC)c(CCNc2ncc(S(N)(=O)=O)s2)c1 | 0.207% |
| CC(C)NC(=O)c1sc2ccccc2c1[C@H]1CC[C@H](CN)CC1 | 38.7% |
| N#CCc1ccc(NC(=O)CNc2ccc(Br)cc2F)cc1 | -7.86% |
| Cc1ccc(C(=O)N2CCOC(c3ncc(CN(C)C)[nH]3)C2)cc1F (configuration not stated) | -3.52% |
| COc1ccc(NC(C)c2nnnn2-c2ccccc2)cc1F (configuration not stated) | -95.4% |
| CCN1C[C@@H]2CN(C(=O)c3ccsc3)C[C@@H]2C1=O | -0.46% |
| O=C(NCc1ccccn1)[C@@]12CCO[C@@H]1CCN(Cc1ccccn1)C2 | -5.8% |
| CN1CCCC1c1ccnc(C(=O)N(C)C2CCCCC2)c1 (configuration not stated) | -11.9% |
| CCC(C)N1Cc2c(C(=O)N3CCOCC3)nn(C)c2C1 (configuration not stated) | -6.15% |
| Cc1cccc2cc(CO)c(N3Cc4cnc(C(C)(C)C)nc4C3)nc12 | 7.83% |
| O=C(CN1CCS(=O)(=O)CC1)NCc1ccccc1F | -8.79% |
| CC1(C)CNC(=O)CN(C(=O)CCc2ccccc2)C1 | -3.7% |
| O=C1NCCCc2[nH]c(C3CCN(C(=O)C4CC4)CC3)nc21 | 11.6% |
| Cc1cc(C(F)(F)F)nc(N2CCN3CCCC3C2)n1 (configuration not stated) | -10.5% |
| Cc1nc(CNC(=O)N(C)Cc2cnn(C)c2)cs1 | 9.64% |
| Cc1nc(CN2CCC3(CCCN(Cc4ccoc4)C3)C2=O)cs1 (configuration not stated) | 11.4% |
| CC(C)CN1CCN(S(=O)(=O)c2cn(C)cn2)Cc2cccnc21 | -10.6% |
| COc1ccc(N2CCN(C(=O)CCc3n[nH]c(C)n3)CC2=O)cc1 | 15.6% |
| Cc1nc(COC[C@@]23CCC[C@@H]2CN(Cc2cnn(C)c2)C3)cs1 | -5% |

| SMILES | cytotoxicity at 70.5 h |
| --- | --- |
| CC(CNC(=O)N(C)Cc1ccco1)N1CCc2sccc2C1 (configuration not stated) | 4.72% |
| CN(C)c1ccc(CC2CCN(c3cnccn3)CC2)nn1 | -7.84% |
| CNC(=O)C1CC2(CCN(C(=O)c3csnn3)CC2)c2ccccc21 (configuration not stated) | 0.474% |
| Cn1cc(CNC2CCCOc3c2ccc2ccccc32)cn1 (configuration not stated) | 2.1% |
| CNC(=O)CN1CCC12CCN(C(=O)Cc1ccccc1)C2 (configuration not stated) | -17.2% |
| CC(C1CCN(Cc2cnn(C)c2C2CC2)CC1)N(C)C (configuration not stated) | -7.09% |
| CCN(CC)C(=O)COc1nc(C(C)C)no1 | 18.3% |
| O=C(NCC1CCN(CCc2ccccc2)C1)c1c(F)cccc1F (configuration not stated) | 14.6% |
| Cc1cc(C(=O)N2CCN(c3ncc4c(n3)CCOC4)CC2)sc1C | 2.24% |
| COc1cccc(Cn2ncnc2CCSC)c1 | -12.2% |
| Cc1nc2c(c(NCCc3nc(C)c(Cl)s3)n1)CCNCC2 | -11% |
| CCSc1ccccc1C(=O)NCCn1nc(C(F)(F)F)n(C)c1=O | -4.82% |
| Cc1cc(S(=O)(=O)NCc2cccc(C(=O)N3CCCC3)c2)c(C)s1 | -0.781% |
| OC1(CNCCN2CCc3ccccc32)CNCCOC1 (configuration not stated) | -11% |
| CC(NC(=O)c1cc(Br)c2c(c1)OCCO2)C(N)=O (configuration not stated) | 16.6% |
| Cc1[nH]ncc1CCCNC(=O)N1CCN2CCCCC2C1 (configuration not stated) | 8.45% |
| Cc1nc(C)n(CC2CCCN(CC(=O)Nc3ccncc3)C2)n1 (configuration not stated) | -5.01% |
| O=C(Nc1ccc(CCN2CCOCC2)cc1)C1CC1 | -4.46% |
| Cc1n[nH]c(-c2ccc(NC(=O)C(C)(C)N3CCN(C)CC3)cc2)n1 | -7.96% |
| CNC(=O)[C@@]12CCO[C@@H]1CCN(S(=O)(=O)c1ccccc1)C2 | -6.28% |
| Cn1nccc1NC(=O)CN1CCc2sccc2C1 | -11.2% |
| CSCc1ccc(C(=O)NCCCNc2ccc(C(F)(F)F)cn2)cc1 | -13.3% |
| CC(C)C(=O)N1CCCC(Cc2cccnc2)C1 (configuration not stated) | -0.448% |

| SMILES | cytotoxicity at 70.5 h |
| --- | --- |
| CCc1nc(CN(C)C(=O)C2CCC(=O)N(CC3CCCCC3)C2)no1 (configuration not stated) | -4.07% |
| Cc1ncc(-c2ccccn2)c(CCNC(=O)C2CCCC2)n1 | 14.1% |
| Cc1ccc(-n2nnc(CC(=O)N3CCN(C4CC4)CC3)c2C)cc1 | -8.64% |
| Cc1nc(CN(C)C2CCN(CC3CCCC3)C2)no1 (configuration not stated) | -1.44% |
| O=C(O)C1(Cc2cccc(-c3ccc(F)c(F)c3)c2)CCOCC1 | -19.2% |
| COc1cccc(-n2nc(C(C)=O)c(C(C)=O)c2C)c1 | -15.4% |
| COc1cccc(O[C@H]2CCN(c3nc(C)cc(C)n3)CC[C@@H]2O)c1 | 20.4% |
| Cc1nc2n(n1)CC(NCc1cnn(-c3ccccc3)n1)CC2 (configuration not stated) | -9.59% |
| O=C(CCc1ccc(F)cc1)NS(=O)(=O)c1ccc2c(c1)OCCCO2 | 4.05% |
| CC(C)NC(=O)CN1CCC2(CC1)OCCO2 | -2.05% |
| CCn1nc(C)cc1C(=O)OCC1CC(=O)N(Cc2ccccc2)C1 (configuration not stated) | 0.617% |
| O=C(C[C@@H]1COC[C@H]2CN(Cc3ccc(F)cc3)C[C@@H]12)N1CCCC1 | 2.93% |
| Cc1cc(C2CCC2)nc(N2CCC3(CC2)OCCCC3O)n1 (configuration not stated) | -8.75% |
| Cc1nc(CN(C)C2CCN(Cc3ccc(Cl)s3)C2)no1 (configuration not stated) | -4.8% |
| N#Cc1ccc(C(=O)NS(=O)(=O)c2ccc(C#N)c(Cl)c2)cc1 | -8.83% |
| CC(C)Nc1cc(N2CCC(n3cc(CCO)nn3)CC2)ncn1 | 16.9% |
| CC(NC(=O)N1CCNC(=O)CC1)c1ccc(C(F)(F)F)cc1 (configuration not stated) | -19.2% |
| Cc1cc(N)nc(C2(C)CCCN2C(=O)c2cnccn2)n1 (configuration not stated) | 4.65% |
| Cc1noc(CN2CCCC2c2noc(C3CC3)n2)n1 (configuration not stated) | 20.7% |
| CNc1nc2c(s1)C(=O)CN(C(=O)NCCc1ccccc1)C2 | 17.6% |
| O=C(c1ccsc1)N1CCC2(CCN(Cc3ccccn3)C2=O)C1 (configuration not stated) | 2.48% |
| Cc1nc(CSCc2ccc(OCC(F)(F)F)nc2)no1 | -7.83% |
| COCC(=O)N1CCC(c2nccnc2Oc2cccnc2C)CC1 | -34% |

| SMILES | cytotoxicity at 70.5 h |
| --- | --- |
| O=C(COc1cccc(Br)c1)N1CCN(c2nccs2)CC1 | 14.3% |
| O=C(c1cc[nH]n1)N1CC[C@@H]2CN(Cc3cccnc3)S(=O)(=O)[C@@H]2CC1 | -1.58% |
| Cc1ccc(F)cc1S(=O)(=O)Nc1cnc(N2CCCC2)nc1 | -9.37% |
| Cc1ncnc2c1CCN(Cc1ccccn1)CC2 | -4.71% |
| Cc1noc(C)c1-c1cccc(C2CN(CC(=O)N(C)C)CCO2)n1 (configuration not stated) | -4.85% |
| CC1=CC[C@@H]2CN(C(=O)c3ccc(-c4cc[nH]n4)cc3)C[C@@H]2C1 | 0.519% |
| COc1ccc(C)nc1NC(=O)CCc1c(C)nn(C)c1C | 6.42% |
| c1ccc(Cc2noc(CN3CCc4cncnc4C3)n2)cc1 | -9.62% |
| CC(=O)N1CCC(C(=O)Nc2nnc(C(F)(F)F)[nH]2)CC1 | -8.53% |
| CN(C)S(=O)(=O)N1C[C@H]2C[C@H](C(=O)Nc3cccnc3)[C@@H](C1)O2 | -8.64% |
| Cc1cccc(CN2CCOCC3(CCN(C4CCOCC4)C3)C2)n1 (configuration not stated) | 7.65% |
| O=C(C[C@@H]1COC[C@H]2CN(Cc3cccnc3)C[C@@H]12)N1CCCC1 | -4.76% |
| Cn1cccc1C(=O)N1C[C@@H](OCc2cccnc2)[C@H]2OCCC[C@H]21 | 8.24% |
| O=C(c1ccoc1)N1CCC2(CC1)COC(COc1ccccn1)C2 (configuration not stated) | -4.94% |
| Cc1ccc(NC2CCN(C(=O)c3cccc4cccnc34)CC2)nn1 | -6.15% |
| Cc1ccc(C(=O)Nc2cc(F)ccc2OCC2CCCO2)cn1 (configuration not stated) | -3.09% |
| Cc1noc(C(C)C)c1C(=O)NCc1cccnc1 | -16.6% |
| CNC(=O)c1ccc(C2CN(C(=O)c3scnc3C)CCO2)nc1 (configuration not stated) | -3.13% |
| Cc1nccn1C1CCCN(C(=O)c2sccc2-n2cnnn2)C1 (configuration not stated) | -8.22% |
| Cc1ccc2cc(CNCCCN3CCOCC3)c(=O)[nH]c2c1C | -8.68% |
